Measurements published in US20200000840A1, “USE OF CYCLODEXTRINS TO REDUCE ENDOCYTOSIS IN MALIGNANT AND NEURODEGENERATIVE DISORDERS” (priority 2016, published 2020).
Several values for one entry are separate records, joined by “and”; a condition that tells them apart may be missing. Equal values may be shown once. Entries after “also recorded” stand apart in the source; their conditions may differ. Read-outs that look alike come from different tables or passages of the source. Marks after values point to notes of the source that are not given here.

Tests used:
[1] = Table 2; cited from earlier work
rats [2] = settings: rat, in vivo; cited from earlier work
[3] = tested on: MDA-MB 231 and MCF-7 human breast epithelial cell lines; test: Wound healing assay, overall statements for both cell lines; type: cell-based; settings: 1-4 mM
Protocol: (§1) Published results have shown that β-CD inhibits human MDA-MB 231 cell migration (Guerra et al. 2016). This inhibition was attributed to the ability of β-CD to “deplete cholesterol”. β-CD, however, depletes also phospholipids. […] Cells were cultured in 24-well culture plates (Cytoselect CBA-120, 0.9 mm wound healing/gap closure migration assay) for 24 hours with wound healing insert in place. […] Protocol: Warm up the 24-well plate (CBA-120, Cell BioLabs Inc.) with 0.9 mm CytoSelect Wound Healing Inserts at room temperature for 10 minutes. Using sterile forceps, orient the desired number of inserts in the plate wells with their “wound field” aligned in the same direction. Create a cell suspension containing 0.5-1.0×10^6 cells/ml in media containing 10% fetal bovine serum (FBS). Add 500 μL of cell suspension to each well by carefully inserting the pipette tip through the open end at the top of the insert. For optimal cell dispersion, add 250 μL of cell suspension to either side of the open ends at the top of the insert. Incubate cells in a cell culture incubator for 12-24 hours. Carefully remove the insert from the well to begin the wound healing assay. Use sterile forceps to grab and lift the insert slowly from the plate well. Slowly aspirate and discard the media from the wells. Wash wells with media to remove dead cells and debris. Finally, add media to wells to keep cells hydrated. Repeat wash if wells still have debris or unattached cells. When washing is complete, add media with FBS and/or compounds to continue cell culture and wound healing process. Agents that inhibit or stimulate cell migration can be added directly to the wells. Incubate cells in a cell culture incubator (2 hours) and then wash cells with PBS and then add fresh media without compounds. Incubate 12-24 hours before wash and fixing. Remove the fixation solution and add 400 μL of Cell Stain Solution to each well. Allow the stain to incubate with the cells for 15 minutes at room temperature. Aspirate and discard the solution. Carefully wash each stained well 3× with deionized water. Discard washes and allow cells to dry at room temperature. Cells that migrated into the wounded area or protruded from the border of the wound were visualized and photographed under an inverted microscope. Determine the surface area of the defined wound area: Total Surface Area=0.9 mm x length. Determine the surface area of the migrated cells into the wound area: Migrated Cell Surface Area=length of cell migration (mm)×2 x length. Percent Closure (%)=Migrated Cell Surface Area/Total Surface Area x 100.

rats [4] = settings: long-term parenteral administration, 200 mg/kg; cited from earlier work
rats [5] = settings: cited from earlier work
[6] = in vivo; cited from earlier work
BBB = settings: cited from earlier work; for Transport across BBB: 2 h
mice, cats, one human = settings: cats, and one human; cited from earlier work
human keratinocytes = settings: cited from earlier work
leukemia mouse models = settings: cited from earlier work
children with NPC = settings: cited from earlier work
renal cancer cells = settings: triple combination treatment, mice implanted with renal cancer cells; cited from earlier work
cats = settings: doses of 4-8 g/kg; cited from earlier work
[7] = tested on: transgenic mouse model of AD; settings: cited from earlier work
[8] = cited from earlier work
MCF-7 cells = test: Wound healing / gap closure migration assay (CytoSelect CBA-120); type: cell-based, human; settings: treated 2 hours
Protocol: as §1

MDA-MB-231 cells = test: as above; type: cell-based, human; settings: treated 2 hours
Protocol: as §1

[9] = parenteral administration; cited from earlier work
human erythrocytes = settings: cited from earlier work
[10] = cyclosporine eye-drops; cited from earlier work
erythrocytes = settings: cited from earlier work
rats [11] = settings: 1.000 g/kg daily; cited from earlier work
animal studies = settings: cited from earlier work
transferrin endocytosis = settings: 10 mM; cited from earlier work
rats [12] = settings: cited from earlier work; remark: listed apart in the source
[13] = cited from earlier work; remark: listed apart in the source
rats [14] = settings: rat, in vivo, cited from earlier work
[15] = parenteral delivery; cited from earlier work

## CC(O)COC[C@H]1O[C@@H]2O[C@H]3[C@H](O)[C@@H](O)[C@@H](O[C@H]4[C@H](O)[C@@H](O)[C@@H](O[C@H]5[C@H](O)[C@@H](O)[C@@H](O[C@H]6[C@H](O)[C@@H](O)[C@@H](O[C@H]7[C@H](O)[C@@H](O)[C@@H](O[C@H]8[C@H](O)[C@@H](O)[C@@H](O[C@H]1[C@H](O)[C@H]2O)O[C@@H]8COCC(C)O)O[C@@H]7COCC(C)O)O[C@@H]6COCC(C)O)O[C@@H]5COCC(C)O)O[C@@H]4COCC(C)O)O[C@@H]3COCC(C)O (stereo partly drawn) [HPbCD, hydroxypropyl-beta-cyclodextrin]
[1]
  Solubility in water: >600 g/L
Rats [2]
  toxic effects at 1 g/kg: did not cause adverse clinical signs
[3]
  migration versus concentration: migration decreased with higher concentration
Rats [4]
  bone mineral density (BMD): decrease bone mineral density
Rats [5]
  acute i.v. toxicity in rats: 10 g/kg
[6]
  Vol. of distribution (VD): 0.2 L/kg
  half-life (t1/2): 1.7 to 1.9 h
BBB
  BBB breakdown: 2.5 mM
mice, cats, one human
  hearing loss: risk of causing permanent hearing loss
Human keratinocytes
  apoptotic cell death: not apoptotic
Leukemia mouse models
  survival: prolonged survival
Children with NPC; about 2500 mg/kg bi-weekly, over a year, two children with NPC
  side effects: no discernable side effects
Children with NPC; children with NPC, doses of up to 1000 mg/kg/d
  tolerability: well tolerated
Children with NPC; steady state IV doses of 2.5 g/kg bi-weekly for >1 yr
  hearing: Hearing unaffected despite receiving steady state IV doses of
Renal cancer cells
  tumor regression: necessary in triple combination treatment for tumor regression
cats
  hearing loss: permanent hearing loss
[7]
  neuroprotection: neuroprotective effects
[8]
  oral absorption in rats: ≤3%
MCF-7 cells; 1 mM
  average wound closure: 73.33%
  wound closure (Percent Closure), replications r1-r3: 68.00% and 74.00% and 78.00%
MCF-7 cells; 2 mM
  average wound closure: 48.33%
  wound closure (Percent Closure), replications r1-r3: 41.00% and 48.00% and 56.00%
MCF-7 cells; 4 mM
  average wound closure: 33.67%
  wound closure (Percent Closure), replications r1-r3: 32.00% and 28.00% and 41.00%
MDA-MB-231 cells; 1 mM
  average wound closure: 67.67%
  wound closure (Percent Closure), replications r1-r3: 62.00% and 68.00% and 73.00%
MDA-MB-231 cells; 2 mM
  average wound closure: 56.00%
  wound closure (Percent Closure), replications r1-r3: 48.00% and 59.00% and 61.00%
MDA-MB-231 cells; 4 mM
  average wound closure: 39.00%
  wound closure (Percent Closure), replications r1-r3: 48.00% and 44.00% and 25.00%

## OC[C@H]1O[C@@H]2O[C@H]3[C@H](O)[C@@H](O)[C@@H](O[C@H]4[C@H](O)[C@@H](O)[C@@H](O[C@H]5[C@H](O)[C@@H](O)[C@@H](O[C@H]6[C@H](O)[C@@H](O)[C@@H](O[C@H]7[C@H](O)[C@@H](O)[C@@H](O[C@H]1[C@H](O)[C@H]2O)O[C@@H]7CO)O[C@@H]6CO)O[C@@H]5CO)O[C@@H]4CO)O[C@@H]3CO [α-cyclodextrin, alpha-cyclodextrin]
[1]
  Solubility in water: 130 to 145 g/L
[9]
  renal toxicity: showed renal toxicity
Human erythrocytes
  tolerance by human erythrocytes: better then β-CD
Human erythrocytes; human erythrocytes, listed as α-CD
  hemolytic activity: β-CD>α-CD>γ-CD; also recorded: lower than that of both β-CD and HP-β-CD
Rats [5]
  acute i.v. toxicity in rats: 0.5 to 0.8 g/kg
[10]
  tolerability in eye-drops: well tolerated
erythrocytes; 10 mM
  phospholipids released: 30%
erythrocytes; above 10 mM
  release of phospholipids on increasing concentration: does not increase release of phospholipids
erythrocytes
  cholesterol extraction: negligible even at hemolytic concentrations
BBB; 0.5 mM
  Transport across BBB: 21.5%
BBB; 1 mM
  Transport across BBB: 16.5%
BBB
  BBB breakdown: 1 mM
  toxicity in the BBB model, comparison of CDs: most toxic among the three native CDs
Rats [11]
  nephrosis, 1, 2, 3, 4, or 7 daily doses s.c.: 1.000 severe nephrosis
Animal studies
  ototoxicity: did not show ototoxicity
Human keratinocytes
  apoptotic cell death: not apoptotic
Transferrin endocytosis
  reduction of transferrin endocytosis: 20%
Rats [12]; 0.100 g/kg
  nephrosis, single dose s.c.: 0.100 no changes
Rats [12]; 1.000 g/kg
  nephrosis, single dose s.c.: 1.000 changes seen
[8]
  oral absorption in rats: 2-3%
[13]
  i.v. toxicity, 1 g daily: 1 died after 2 d
Rats [14]; iv
  single dose i.v. LD50: 0.788/1.008 * g/kg
Rats [14]
  LD50: 1008 mg/kg
[15]
  excretion: excreted almost completely in an intact form into the urine
